Bridge positions count the residues as written; N and C are the ends. Peptide text beside a SMILES is read from it.
Legend:
[1] = test system: cartilage; assay: Peptide homing with kidney ligation (autoradiography); type: in vivo, Female Harlan athymic nude mice; settings: mice with ligated kidneys, 50-100 nmol via tail vein injection
Experimental: This example describes a dosing scheme for administering peptides to mice in conjunction with kidney ligation. Different dosages of the peptides of SEQ ID NO:149 and SEQ ID NO:150 were administered to Female Harlan athymic nude mice, weighing 20 g-25 g, via tail vein injection (n=2 mice per peptide). The experiment was done in duplicates. The kidneys were ligated to prevent renal filtration of the peptides. Each peptide was radiolabeled by methylating lysines and the N-terminus, so the actual binding agent may contain methyl or dimethyl lysine(s) and a methylated or dimethylated amino terminus.
A target dosage of 50-100 nmol of each peptide carrying 10-25 uCi of ^14C was administered to Female Harlan athymic nude mice while anesthetized. Each peptide was allowed to freely circulate within the animal before the animals were euthanized and sectioned.
This example illustrates peptide homing to cartilage of mice with kidneys that were ligated prior to peptide administration. At the end of the dosing period in EXAMPLE 4, mice were frozen in a hexane/dry ice bath and then frozen in a block of carboxymethylcellulose. […]

[2] = test system: cartilage and kidneys; assay: Peptide homing with intact kidneys (autoradiography); type: in vivo, Female Harlan athymic nude mice
Experimental: Additionally, the peptide can be retained in cartilage for hours after treatment. The SEQ ID NO: 150 peptide was radiolabeled as in EXAMPLE 4 and 100 nmol of peptide was injected into a mouse with intact kidneys.
This example describes a dosing scheme for administering peptides to mice without kidney ligation. The peptide administered had the sequence of SEQ ID NO: 150. The peptide was radiolabeled by methylating lysines and the N-terminus, so the actual binding agent may contain methyl or dimethyl lysine(s) and a methylated or dimethylated amino terminus.
A target dosage of 100 nmol of each peptide carrying 10-25 μCi of ^14C was administered to Female Harlan athymic nude mice by a tail vein injection. Each peptide was allowed to freely circulate within the animal for either 4 hours or 24 hours before the animals were euthanized and sectioned.
This example illustrates peptide homing to cartilage in animals with intact kidneys. At the end of the 4 hour or 24 hour dosing periods in EXAMPLE 6, mice were frozen in a hexane/dry ice bath and then frozen in a block of carboxymethylcellulose. […]

[3] = test system: cartilage (intervertebral discs, knee joints); assay: Whole body autoradiography of radiolabeled cartilage homing peptides; type: in vivo, Female Harlan athymic nude mice; settings: for Homing of radiolabeled peptide to cartilage: mice, 100 nmol via tail vein injection, 5 minutes to 48 hours; for Signal of folded knotted peptide as compared to the linearized peptide of SEQ ID NO: 218: TABLE 8 versus TABLE 9
Experimental: This example illustrates peptide homing to cartilage mice 5 minutes to 48 hours after administration of a radiolabeled peptide. Signal from the radiolabeled peptides was found in all types of cartilage at each time point examined. Each peptide was radiolabeled by methylating […] as described in EXAMPLE 2. As such, the peptide may contain methyl or dimethyl lysines and a methylated or dimethlyated amino terminus. A dose of 100 nmol radiolabeled peptide was administered via tail vein injection in Female Harlan athymic nude mice, weighing 20-25 g. The experiment was done in duplicate (n=2 animals per group). Each radiolabeled peptide was allowed to freely circulate within the animal for the described time period before the animals were euthanized and sectioned.
Whole body autoradiography (WBA) sagittal sectioning was performed as follows. At the end of the dosing period, mice were frozen in a hexane/dry ice bath and then embedded in a frozen block of carboxymethylcellulose. […] Sections were allowed to dessicate in a freezer prior to imaging. For the autoradiography imaging, tape mounted thin sections were freeze dried and radioactive samples were exposed to phosphoimager plates. These plates were developed and the signal (densitometry) from each organ was normalized to the signal found in the cardiac blood of each animal. A signal in tissue darker than the signal expected from blood in that tissue indicates accumulation in a region, tissue, structure, or cell.

[4] = test system: cartilage (intervertebral discs, knee joints); assay: as above; type: in vivo, Female Harlan athymic nude mice
[5] = Stability testing of peptide in solution, RP-HPLC; type: physicochemical; settings: 5 mg/mL in 50 mM Tris, 5% Mannitol, pH 7.6
Experimental: This example describes stability testing of peptides of the present disclosure. A 5 mg/mL solution of SEQ ID NO: 149 (also disclosed as SEQ ID NO: 46; non-GS version of SEQ ID NO: 149/SEQ ID NO: 46 are shown in SEQ ID NO: 128 and SEQ ID NO: 205) was prepared in 50 mM Tris, 5% Mannitol, pH 7.6. The stability of SEQ ID NO: 149 in solution was assessed by stressing the sample at 40° C. for 10 days and analyzed by RP-HPLC side-by-side with an unstressed sample prepared under the same conditions and stored at −20° C. […] This change was predominantly the result of an increase in area of one predominant impurity peak eluting after the main peak in the sample that was exposed to the higher temperature. No other impurities present in the initial sample increased substantially and no substantial new impurities were seen.

CC[C@H](C)[C@@H]1NC(=O)[C@@H]2CSSC[C@H](NC(=O)[C@H](CCCCN)NC(=O)[C@@H](NC(=O)[C@H](CC(N)=O)NC(=O)[C@@H](NC(=O)[C@@H]3CCCN3C(=O)[C@@H](NC(=O)CNC(=O)[C@H](CO)NC(=O)CN)C(C)C)[C@@H](C)CC)C(C)C)C(=O)N[C@@H](CCCNC(=N)N)C(=O)NCC(=O)N[C@@H](CO)C(=O)N[C@@H](CCCNC(=N)N)C(=O)N[C@@H](CC(=O)O)C(=O)N[C@H]3CSSC[C@H](NC(=O)[C@H](CCCCN)NC(=O)[C@H](CO)NC(=O)[C@H](CC(N)=O)NC1=O)C(=O)N[C@@H](Cc1c[nH]cn1)C(=O)N[C@H](C(=O)N[C@H](C(=O)N1CCC[C@H]1C(=O)O)[C@@H](C)O)CSSC[C@H](NC(=O)[C@@H]1CCCN1C(=O)[C@H](CC(=O)O)NC(=O)[C@H](CC(C)C)NC3=O)C(=O)N[C@@H](CCCCN)C(=O)N[C@@H](CCCCN)C(=O)N[C@@H](C)C(=O)NCC(=O)N[C@@H](CCSC)C(=O)N[C@@H](CCCNC(=N)N)C(=O)N[C@@H](Cc1ccccc1)C(=O)NCC(=O)N[C@@H](CCCCN)C(=O)N2 [SEQ ID NO: 150] (H-GSGVPINVKCRGSRDCLDPCKKAGMRFGKCINSKCHCTP-OH; disulfide 10-30, 16-35, 20-37; N-terminus and C-terminus assumed)
Peptide distribution (14C signal) [1]: distribution in joint and other cartilage | Peptide distribution (14C signal) ([2]; mice with intact kidneys, 100 nmol via tail vein injection, 4 hours or 24 hours): distribution in joint and other cartilage as well as kidneys | Retention and tissue distribution in cartilage ([2]; mouse with intact kidneys, 100 nmol, 24 hours after administration): retention of and the tissue distribution in the cartilage

GSKCRGSRDCLDPCKKAGMRFGKCINSKCHCTP [SEQ ID NO: 27]
Peptide distribution (14C signal) [1]: distribution in nasal, spinal, tracheal, and other cartilage

GSGVPINVRSRGSRDSLDPSRRAGMRFGRSINSRSHSTP [SEQ ID NO: 218, reference compound]
Signal of radiolabeled peptide in IVD as a Percentage of Blood ([3]; 3 hr, Intact Kidneys): 177 Percentage of Blood | Homing of radiolabeled peptide to cartilage [3]: homed to cartilage to a much lesser extent | Signal of radiolabeled peptide in IVD as a Percentage of Blood ([4]; 3 hr, Ligated Kidneys): 117 Percentage of Blood | Signal of radiolabeled peptide in IVD as a Percentage of Blood ([4]; 24 hr, Intact Kidneys): 104 Percentage of Blood

GSGVPINVRCRGSRDCLDPCRRAGMRFGRCINSRCHCTP [SEQ ID NO: 149]
Signal of folded knotted peptide as compared to the linearized peptide of SEQ ID NO: 218 ([3]; at 3 hours): ~20 fold | Signal of folded knotted peptide as compared to the linearized peptide of SEQ ID NO: 218 ([3]; at 24 hours): ~50 fold | Signal of radiolabeled peptide in IVD as a Percentage of Blood ([3]; intervertebral discs, 0.08 hours after 100 nmol via tail vein injection): 164 Percentage of Blood | Signal of radiolabeled peptide in IVD as a Percentage of Blood ([3]; intervertebral discs, 0.5 hours after 100 nmol via tail vein injection): 369 Percentage of Blood | Signal of radiolabeled peptide in IVD as a Percentage of Blood ([3]; intervertebral discs, 1 hour after 100 nmol via tail vein injection): 961 Percentage of Blood | Signal of radiolabeled peptide in IVD as a Percentage of Blood ([3]; intervertebral discs, 3 hours after 100 nmol via tail vein injection): 3213 Percentage of Blood | Signal of radiolabeled peptide in IVD as a Percentage of Blood ([3]; intervertebral discs, 8 hours after 100 nmol via tail vein injection): 3777 Percentage of Blood | Signal of radiolabeled peptide in IVD as a Percentage of Blood ([3]; intervertebral discs, 24 hours after 100 nmol via tail vein injection): 5391 Percentage of Blood | Signal of radiolabeled peptide in IVD as a Percentage of Blood ([3]; intervertebral discs, 48 hours after 100 nmol via tail vein injection): 3320 Percentage of Blood | Signal of radiolabeled peptide in Knee Joints as a Percentage of Blood ([3]; 0.08 hours after 100 nmol via tail vein injection): 404 Percentage of Blood | Signal of radiolabeled peptide in Knee Joints as a Percentage of Blood ([3]; 0.5 hours after 100 nmol via tail vein injection): 510 Percentage of Blood | Signal of radiolabeled peptide in Knee Joints as a Percentage of Blood ([3]; 1 hour after 100 nmol via tail vein injection): 1114 Percentage of Blood | Signal of radiolabeled peptide in Knee Joints as a Percentage of Blood ([3]; 3 hours after 100 nmol via tail vein injection): 4059 Percentage of Blood | Signal of radiolabeled peptide in Knee Joints as a Percentage of Blood ([3]; 8 hours after 100 nmol via tail vein injection): 4990 Percentage of Blood | Signal of radiolabeled peptide in Knee Joints as a Percentage of Blood ([3]; 24 hours after 100 nmol via tail vein injection): 2137 Percentage of Blood | Signal of radiolabeled peptide in Knee Joints as a Percentage of Blood ([3]; 48 hours after 100 nmol via tail vein injection): 843 Percentage of Blood | Homing of radiolabeled peptide to cartilage [3]: homed to and accumulated in the cartilage | Purity by RP-HPLC of stressed sample ([5]; 40° C. for 10 days): 93.5% | Visual inspection of the samples (solubility, precipitation) ([5]; 40° C. for 10 days versus −20° C.): no change in solubility | Initial purity by RP-HPLC (non-stressed sample) ([5]; stored at −20° C.): 96.4%

Reference: patent publication US20210171589A1, “TRUNCATED CARTILAGE-HOMING PEPTIDES AND PEPTIDE COMPLEXES AND METHODS OF USE THEREOF” (BLAZE BIOSCIENCE, INC., priority 2018, published 2021)
